Test results published in patent US20090221540A1, “Method of Treating An Acute Vascular Disorder” (PANTARHEI BIOSCIENCE B.V., priority 2006, published 2009).
Read-outs that look alike come from different tables or passages of the source. Each block holds one compound with its values, some of them ahead of it.

Tests used:
[1] = single oral dose pharmacokinetics study of estetrol in healthy postmenopausal volunteers; format: in vivo, human; settings: for Cmax: po
Description: (§1) A double-blind, randomized, placebo-controlled, single dose study was performed to determine the safety, tolerability and pharmacokinetics of 1, 10 and 100 mg orally administered estetrol in healthy postmenopausal volunteers (menopause defined as ≧12 months amenorrhea or six months amenorrhea with serum FSH levels ≧40 IU/L and serum E2<73 pmol/L), a Body Mass Index of 18-30 kg/m^2, non-smoking, good physical and mental health as judged by the investigator determined by medical history, physical examination, clinical laboratory, vital signs and ECG recording). In each dose group, six subjects received estetrol treatment and two subjects received placebo.
Estetrol and placebo medication was formulated as a solution (propylene glycol/water mixture) and was delivered in separate bottles for each volunteer. Bottles contained 1 mg or 10 mg estetrol per 50 ml for subjects of the groups that received 1 mg or 10 mg estetrol and 100 mg per 200 ml for the group receiving 100 mg estetrol.
(§2) Screening took place within two weeks before investigational drug administration. During and after drug administration, subjects were admitted to a Clinical Pharmacology Unit for approximately 60 hours for intensive safety monitoring. Safety and tolerability were documented by monitoring (serious) adverse events, physical examinations including vital signs, and safety laboratory assessments (hematology, biochemistry, urinalysis). Frequent blood sampling (within the range of 15 minutes to 168 hours) was performed to assess estetrol plasma concentration and pharmacokinetic variables. For this, plasma samples were subjected to liquid-liquid extraction (hexane and diethyl ether) and further subjected to HPLC analysis (Perkin Elmer 200) and tandem mass spectrometry using a PE Sciex 4000 tandem mass spectrometer and APCI interface. With each sample batch, a calibration curve with 6 calibrators was recorded. The calibration curve was calculated using linear regression (correlation coefficient >0.98), which permitted quantification of estetrol plasma concentrations.

[2] = safety and tolerability of single oral doses of estetrol in healthy postmenopausal volunteers; format: in vivo, human
Description: as §1, §2

[3] = test system: angina pectoris induced by coronary artery disease; test: clinical trial of on demand oral estetrol versus placebo in angina pectoris; format: in vivo, human; settings: 100 mg per dose
Description: A clinical trial is conducted with single dose, on demand oral estetrol administration of 100 mg in subjects suffering from documented angina pectoris and is compared to placebo treatment. Additionally, patients in this trial are offered to use their standard on demand medication, e.g. nitroglycerin. Hundred patients, males and females, with a diagnosis of angina pectoris induced by coronary artery disease, substantiated by positive dynamic tests of myocardial ischaemia, participate in the clinical trial. Patients are selected according to the following inclusion (I) and exclusion (E) criteria: Patients with clear angina pectoris diagnosis (I), patients having chest pain attacks more than two times a week (I). Patients with active myocardial infarct or other cardiopulmonary heart disease, such as severe psychoneurosis, menopausal syndrome and chest pain caused by cervical spondylopathy (E), patients of angina pectoris combined with hypertension (bloodpressure >24/14.87 Kpa) (E), patients of severe cardiopulmonary function deficiency, severe arrhythmia, abnormal liver and renal function and/or hematopoietic disease (E), breast-feeding women and patients with a known history of allergic disease (E), patients younger than 18 or older than 70 (E).
The diagnostic standard for angina pectoris severity is used to describe baseline patient characteristics and subsequently to monitor treatment efficacy (see below).
Low-grade: Typical attack of angina pectoris, which usually lasts a few minutes and occurs 1-3 times a day. The attack is not severe, but the patient sometimes needs to take nitroglycerin. Mid-grade: Angina attack occurs more than 3 times everyday and lasts several to ten minutes every time. The pain is more severe than that of the low-grade attack and the patient generally needs sublingual nitroglycerin. High-grade: Angina attack occurs frequently daily. It lasts longer and more seriously. Routine life is affected. The patient needs to use nitroglycerin frequently.
The diagnostic standard for angina pectoris types is used to describe baseline characteristics and classify patient types.
Exertionally-induced angina pectoris: The transient attack of chest pain is caused typically by exertion or other conditions that increase myocardial oxygen demands. The pain normally disappears rapidly after rest or administration of sublingual nitroglycerin. Spontaneous angina pectoris: The attack of chest pain is not obviously related to increase of myocardial oxygen consumption. Compared with tiredness-induced angina pectoris, the pain lasts longer and is more severe. It can not be easily alleviated by nitroglycerin. Mixed Angina Pectoris: Spontaneous angina pectoris can come with tiredness-induced angina pectoris and is classified as mixed angina pectoris. […]

migraine = test: double-blind, placebo-controlled, multiple attack clinical study of on demand oral estetrol in migraine; format: in vivo, human
Description: A double-blind, placebo-controlled, multiple attack clinical study is conducted with single dose, on demand oral estetrol administration in adult volunteers (20 females and 20 males) each of whom is seeking migraine relief. Participating subjects show at least a 1-year history of migraine as is defined by International Headache Society criteria (IHS; Headache Classification Committee of the International Headache Society, 1988, Cephalalgia 8 (Suppl. 7):19-28) and report regularly occurring migraines with episodes of pain, photophobia and nausea. Each participant receives blinded medication in two differently labeled bottles, filled with tablets. One bottle comprises tablets that contain 100 mg estetrol, whilst the other bottle contains identical placebo tablets. Participants are allowed to choose from which bottle to orally ingest a tablet at the moment the first symptoms of a migraine attack become apparent. Patients are asked to keep daily records stating the number of migraine attacks, severity of attacks, duration of attacks and use of medication (bottle 1 or bottle 2) for the entire study period of 2 months.

[4] = test system: erectile dysfunction primarily due to vascular causes; test: clinical trial of on demand oral estetrol versus placebo in erectile dysfunction (SFQ); format: in vivo, human; settings: 100 mg per dose
Description: As a novel method single dose, on demand oral estetrol administration is tested to treat erectile dysfunction and compared to placebo treatment. A clinical trial is performed in 20 subjects, experiencing erectile dysfunction that is primarily due to vascular causes and in whom intracavernous injection of either papaverine or phentolamine has been previously proven successful in restoring erectile function. Ten subjects receive estetrol medication (100 mg per dose) and 10 subjects receive placebo medication in this outclinic study. Subjects with mild, moderate as well as severe symptoms of erectile dysfunction are instructed on the use of investigational drug medication, which is preferentially being taken 15 minutes to 2 hours before sexual activity. At the start of the trial, subjects are asked to fill out a baseline Sexual Functioning Questionnaire (SFQ). The SFQ is used as the primary endpoint, since this is a self-administered questionnaire and designed to measure changes in sexual function (Smith et al., 2002, British J. Psych., 181:49-55). It asks detailed questions about libido, physical arousal (erection), masturbation, orgasm and ejaculation. It is designed such that higher scores indicate greater dysfunction. Typically total normal controls scores are less than 14 and sexually disfunctioning patients show total scores of more than 18 (Smith et al., 2002, British J. Psych., 181:49-55). […] At the end of the study period at 4 weeks, subject's responses to SFQ survey questions are compared to SFQ responses at baseline. For separate SFQ variables, a comparison is made of those subjects who initially show a bad baseline score. The results are then pooled and expressed as the percentage of subjects with improvement.

[5] = test system: coronary and cerebral arteries; settings: in vitro; cited from earlier work

- time of maximum plasma concentrations post-dosing ([1]; 1 mg oral dose group): 15 min
- Cmax ([1]; female, human, plasma, 1 mg, 1 mg oral estetrol, read-out: Cmax (median)): 0.52 ng/mL
- Cmax ([1]; female, human, plasma, 1 mg, 1 mg oral estetrol, read-out: Cmax (range)): 0.39 to 1.2 ng/mL
- Cmax ([1]; female, human, plasma, 10 mg, 10 mg oral estetrol, read-out: Cmax (median)): 9.4 ng/mL
- Cmax ([1]; female, human, plasma, 10 mg, 10 mg oral estetrol, read-out: Cmax (range)): 5.4 to 11.6 ng/mL
- Cmax ([1]; female, human, plasma, 100 mg, 100 mg oral estetrol, read-out: Cmax (median)): 148 ng/mL
- Cmax ([1]; female, human, plasma, 100 mg, 100 mg oral estetrol, read-out: Cmax (range)): 119 to 213 ng/mL
- half-life ([1]; female, human, plasma, single oral dose, final elimination phase, read-out: terminal half-life (converted)): ~28 h
- gastro-intestinal absorption ([1]; oral dosing 1, 10 and 100 mg): good gastro-intestinal absorption
- inter-subject variability of pharmacokinetic profile ([1]; oral dosing 1, 10 and 100 mg): low inter-subject variability
- speed of absorption ([1]; single oral dose): extremely fast
- start of slow phase of final elimination post-dosing ([1]; single oral dose): approximately 24 hours
Structure (SMILES): C[C@]12CC[C@@H]3c4ccc(O)cc4CC[C@H]3[C@@H]1[C@@H](O)[C@@H](O)[C@@H]2O [estetrol, 1,3,5 (10)-estratrien-3,15α,16α,17β-tetrol]
- changes in vital signs, haematology, biochemistry or urinalysis ([2]; 1, 10 and 100 mg estetrol): no clinically significant changes
- severe or serious adverse events ([2]; 1, 10 and 100 mg estetrol): No severe or serious adverse events
- safety and tolerability profile ([2]; single oral doses of 1, 10 and 100 mg): safe and well tolerated
- patient-reported effect on angina pectoris symptoms ([3]; on demand oral): relief of angina pectoris symptoms
- side effects versus placebo ([3]; on demand oral, 4 weeks): no obvious side effects
- use of nitroglycerin versus placebo arm ([3]; on demand oral, 4 weeks): significantly lower than in the placebo arm
- improvement of exercise tolerance, ability to extend the duration of walking and quality of life ([3]; versus placebo): statistically more improvement
- headache and relief of migraine symptoms versus baseline analgesic and/or triptan-type medication (migraine; 100 mg estetrol tablets): less headache and more quicker relief of migraine symptoms
- side effects directly related to investigational drug (migraine; 100 mg estetrol tablets, on demand, 2 months): No apparent side effects
- tablet use by participants, estetrol versus placebo (migraine; free choice between blinded bottles, 2 months): significantly more estetrol containing tablets than placebo tablets
- improvement in satisfaction with overall sex life versus placebo ([4]; SFQ at 4 weeks): more subjects report improvement
- percentage of subjects with improvement in the ability to develop and maintain erections versus placebo ([4]; SFQ at 4 weeks versus baseline): higher percentage of subjects that show improvement
- tolerability ([4]; on demand oral, 4 weeks): well tolerated

Structure (SMILES): C[C@]12CC[C@@H]3c4ccc(O)cc4CC[C@H]3[C@@H]1CC[C@@H]2O [17β-estradiol]
- effect on coronary and cerebral arteries [5]: relaxant effect
